Measured values reported in patent US20250320557A1, “USE OF ABCF1 IN METHODS OF DIAGNOSING AND MONITORING INFLAMMATORY AND/OR AUTOIMMUNE DISEASE” (MYND Life Sciences Inc., priority 2021, published 2025).

Columns and labels:
ABCF1 [1] = assay: real time RT-PCR for ABCF1 in RAW macrophages treated with Escitalopram; assay type: cell-based; details: 0.3 mM Escitalopram, 1 hour
Protocol: (§1) FIG. 1 illustrates that Escitalopram induces ABCF1 in a Macrophage cell line: RAW macrophages were plated at 1×10^5 cells/well and cultured for 2 days. The cells were incubated with 0.3 mM Escitalopram for 1 hour, and then harvested for total RNA, which was extracted for real time RT-PCR specific for ABCF1 and IL-4. CT values were normalized with CT value for the housekeeping gene from the DMSO control. The difference in the expression after drug treatment is consistent with polarization towards an M2-like phenotype (data were consistent in 3 separate experiments).

ABCF1 [2] = details: peripheral blood mononuclear cells of patients responding to treatment; cited from earlier work
IL-4 = assay: real time RT-PCR for IL-4 in RAW macrophages treated with Escitalopram; assay type: cell-based; details: macrophage cell line (RAW); 0.3 mM Escitalopram, 1 hour; normalized to housekeeping gene, DMSO control
Protocol: as §1

ABCF1 [3] = assay: qPCR of ABCF1 transcription in macrophage cell line RAW264.7 (dose response / time course); assay type: cell-based; details: 10 nM, 100 nM, 500 nM, 2 hours, normalized against GAPDH
Protocol: FIG. 3 illustrates the effect of psylocibin, psylocin and their analogs on ABCF1 transcription in a macrophage cell line. Briefly, the Macrophage cell line RAW264.7 (ATCC) were grown to 80% confluency in growth media (DMEM+ 10% FBS+ glutamine). Dilutions of psylocibin, psylocin and their analogs were made at desired final concentrations for a Dose response experiment. The concentrations' used for this experiment are: 10 nM, 100 nM, 500 nM for Psilocin, Psylocibin, 4-Acetoxy-N, N-dimthyltryptamine, O-Acetyl Psilocin Fumerate, and 4-acetoxyindole. The cells were incubated for 2 hours and then harvested for total RNA, which was extracted for real time RT-PCR specific for ABCF1. Untreated cells were used as negative control and Escitalopram at 0.3 mM was used as a positive control to activate ABCF1 expression for all the experiments. ES=escitalopram; PSYB=Psylocibin; PSIC=Psilocin; DMT=4-Acetoxy-N, N-dimthyltryptamine; APF=O-Acetyl Psilocin Fumerate, and AOI=4-acetoxyindole.
• 1. Macrophage cell line RAW264.7 (ATCC) were grown to 80% confluency in growth media (DMEM+10% FBS+glutamine). • 2. Dilutions of the drugs were made at desired final concentrations for a Dose response experiment. […]
• 1. […] Normalized against the expression level of GAPDH, the fold change expression level of ABCF1 was calculated and tabulated for all treatment conditions.

| SMILES | ABCF1 induction (in words) (ABCF1 [1]; RAW macrophages) | induction of ABCF1 (ABCF1 [1]; macrophage cell line (RAW), normalized to housekeeping gene, DMSO control) | ABCF1 transcription in PBMCs (ABCF1 [2]) | induction of IL-4 (IL-4) | effect on ABCF1 transcription (ABCF1 [3]) |
| --- | --- | --- | --- | --- | --- |
| CN(C)CCC[C@@]1(c2ccc(F)cc2)OCc2cc(C#N)ccc21 [Escitalopram] | induces ABCF1 | approximately 20 fold | increased the transcription of a single gene: ABCF1 | approximately 5 fold | – |
| CN(C)CCc1c[nH]c2cccc(O)c12 [psylocin, Psilocin] | – | – | – | – | upregulate ABCF1 transcription |
| CN(C)CCc1c[nH]c2cccc(OP(=O)(O)O)c12 [psylocibin, Psylocibin] | – | – | – | – | upregulate ABCF1 transcription |
